We go through one substance from PMC8403366, “Functional significance of gain-of-function H19 lncRNA in skeletal muscle differentiation and anti-obesity effects” (Genome Medicine, 2021).

Holding throughout (type): in vivo, mouse
Series [1] relates to C57BL/6 J mice. As to the kind of experiment: Echocardiography and diaphragm/aorta histology. The note with it: vs AGR-Scr. On the procedure: The heart function of the mice was assessed using functional rodent echocardiography. After their body hair from the neckline to mid chest level was removed with hair removal cream, the mice were anesthetized with 2% isoflurane in the induction chamber and placed in a supine position atop a heating pad to maintain body temperature. The concentration of isoflurane was adjusted to keep a target heart rate of 450 ± 50 beats per minute (bpm). A rectal probe was gently inserted to continuously monitor and adjust body temperature (37.0 °C ± 0.5 °C) via the heating pad. Electrode gel was applied to all four paws, which were then taped to the ECG electrodes. The mice were subjected to transthoracic echo using Vevo 2100 (MS-550D, 22–55 MHz, VisualSonics Inc.).
Tissues were fixed in 10% Neutral Buffered Formalin embedded in paraffin, sectioned at 5 μm, and stained with hematoxylin/eosin (H&E). Detection of H19 expression using a RNAScope probe (designed by Advanced Cell Diagnostics) was performed on mouse tissues with a RNAScope 2.0 High Definition Assay kit according to the manufacturer's instructions (Advanced Cell Diagnostics). The images were visualized with a Zeiss Axioskop2 plus Microscope, and the slides were scanned on the Automated Cellular Image System III for quantification by digital image analysis.

The subject of series [2] is C57BL/6 J mice. As to the kind of experiment: Forelimb grip strength test. The note with it: vs AGR-Scr. The procedure: A grip strength meter (Columbus Instruments) was used to measure the forelimb grip strength as previously reported. The grid was attached to a force transducer to measure the maximum force applied by the mouse on the grid during the pull. The body weight of the mice was recorded prior to the test and the units of force were calculated in grams-of-force.

Series [3] has as its system C57BL/6 J mice. Kind of series: Tissue distribution / pharmacokinetics of biotinylated mimics. The note with it: 10 mg/kg i.p.; streptavidin immunohistochemistry, 24 hours post administration; n = 5. On the procedure: The H19-Rgof mimics and AGR-H19-Rgof mimics were synthesized by Bio-synthesis Inc. The linker that connected the peptide and RNA oligonucleotides was succinimidyl 4-(N-maleimidomethyl) cyclohexane-1-carboxylate (SMCC). RNA mimics sequences are listed in the Additional file 1: Table S1. To characterize the pharmacokinetics of H19-Rgof and AGR-H19-Rgof mimics, the biotinylated H19-Rgof and AGR-H19-Rgof mimics (10 mg/kg) were intraperitoneally injected into C57BL/6 J mice. The liver, kidneys, lungs, heart, and skeletal muscles of the animals were collected 3, 12, 24, 48, or 72 h post-injection (n = 5 animal per time point). Tissues were subjected to immunohistochemistry using streptavidin alkaline phosphatase conjugates and small RNA isolation in accordance with the manufacturer’s instructions using miRCURY™ RNA Isolation Kits (Qiagen). Immunostained tissue slides were obtained with a Vectra Polaris Multispectral Imaging scanner (PerkinElmer). The quantification of immunohistochemistry staining density was performed by Image-pro plus 6.0 (Media Cybernetics) and calculated based on the average staining intensity and the percentage of positively stained cells. Pharmacokinetic parameters were determined by nonlinear regression analysis.

For series [4], the system named is C57BL/6 J mice. As to the kind of experiment: Glucose and insulin tolerance tests. Particulars: n = 5. On the procedure:
Insulin (ITT) and glucose (GTT) tolerance tests were performed on 6-h fasted male and female mice fed with chow or HFD. Glucose values were measured using AimStrip® Plus Blood Glucose Meter (VWR) by tail snip. Glucose (1 g per kg body weight) or human insulin (0.75 U per kg body weight) was injected intraperitoneally (i.p.) after baseline glucose levels were measured in each mouse, and blood glucose levels were measured 15, 30, 45, 60, and 90 min after injection.

Series [5] relates to C57BL/6 J mice. Kind of series: Oxymax/CLAMS metabolic cage study. Particulars: n = 4. On the procedure:
Whole-body composition parameters were measured in male and female mice fed with either chow or HFD by Faxitron Specimen Radiography System (Faxitron X-Ray Corp.) to precisely measure total body fat and lean mass. Mice were housed in the Oxymax/CLAMS metabolic cage system (Columbus Instruments) for 4 days with ad libitum access to food and water. Volume of oxygen uptake (VO2) and exhaled carbon dioxide (VCO2), respiratory exchange ratio (RER), and activity were measured using the Oxymax system. RER is determined by dividing VCO2 produced by VO2 consumed.

Series [6] has as its system C57BL/6 J mice. As to the kind of experiment: Liver Oil Red O / H&E staining and WAT adipocyte size. On the procedure:
H&E staining was performed in paraffin-embedded livers to visualize the pattern of lipid accumulation and inflammatory status. Lipid droplet accumulation in the liver was visualized using Oil Red O (O0625, Sigma) staining of frozen liver sections prepared in an optimum cutting temperature (O.C.T.) compound (4585, Fisher Scientific). Histopathology images were acquired with a light microscope (Olympus). Adipocyte size (from WAT) was determined with ImageJ software. Sections from five animals per group were used and at least 500 adipocytes per animal were measured from multiple fields.

As for “N-terminal-ELTNEIPAELTNEIPA-Linker-5'-[2’-F-C][2’-F-U][2’-F-C][2’-F-U][2’-F-U][2’-F-U][2’-F-A][2’-F-U][2’-F-U][2’-F-U][2’-F-C][2’-F-U][2’-F-G][2’-F-A][2’-F-G][2’-F-C][2’-F-U][2’-F-U][2’-F-U][2’-F-C][2’-F-C][2’-F-U][2’-F-A][2’-F-U][2’-F-C][2’-F-U][2’-F-U][2’-F-U][2’-F-C][2’-F-C]-3' [AGR-H19-Rgof]”, the “LV end diastolic diameter, LV stroke volume, LV ejection fraction, LV fractional shortening, interventricular septal end diastole” value in series [1] (echocardiography, n = 10) is listed as “minimally affected”. In series [1] (histology, n = 6), the “aorta tunica media and tunica adventitia thickness” value was “unaltered”; the diaphragm thickness entry is recorded as “increased thickness”. Besides, the “force output, forelimb grip strength test” value in series [2] (HFD-fed mice, n = 5) was “increased force output”. Also, the “forelimb grip strength, average force” value in series [2] (WT male and female mice, n = 8) is “increased average force”. In series [3], the “accumulation in liver, kidneys and lungs” value was “minimal accumulation”; the “biotin-labeled mimic detected in skeletal muscle” value is on record as “substantial proportion”; the “skeletal muscle distribution compared to unlabeled H19-Rgof” value is recorded as “significantly enhanced”. Moreover, in series [4] (HFD-fed male mice), the “glucose metabolism (GTT)” value is “improved” and the “insulin resistance (ITT, serum insulin, HOMA-IR)” value is given as “alleviated”. Moreover, in series [4] (WT male mice on chow, glucose 1 g per kg i.p.), the “blood glucose levels in response to a glucose challenge (GTT)” value was “reduced”. Moreover, the “blood glucose levels in response to an insulin challenge (ITT)” value in series [4] (WT male mice on chow, insulin 0.75 U per kg i.p.) was “reduced”. In addition, in series [5] (HFD-fed male mice, vs AGR-Scr), the overall food intake result is “similar”. In addition, the energy expenditure entry in series [5] (HFD-fed mice, CLAMS) is on record as “elevated”. Moreover, in series [5] (HFD-fed mice, CLAMS, vs AGR-Scr), the total activity entry was “similar”. Besides, in series [5] (WT male mice on chow, CLAMS, vs control), the activity per day/night entry was “not significantly altered”. For the same substance, the total food intake entry in series [5] (WT male mice on chow, vs control) was “not significantly altered”. Moreover, the “respiratory exchange ratio (RER)” value in series [5] (WT mice on chow, CLAMS, vs AGR-Scr) is “elevated”. Further, in series [6] (HFD-fed mice, H&E and Oil Red O, liver weight), the “fatty acid deposition in the liver and WAT” value is recorded as “significantly reduced”. Further, the “adipocyte size in WAT” value in series [6] (WT male mice on chow, H&E, vs AGR-Scr, n = 5) is “reduced”. In series [6] (WT male mice on chow, Oil Red O, vs AGR-Scr, n = 8), the “fatty acid accumulation in the liver” value is on record as “reduced”.
